This is an account of results in article PMC11337205, “Unraveling Interspecies Differences in the Phase I Hepatic Metabolism of Alternariol and Alternariol Monomethyl Ether: Closing Data Gaps for a Comprehensive Risk Assessment” (Chemical Research in Toxicology, 2024).

SMILES strings stand for the structures. Read-outs that look alike come from different tables or passages of the source.

The conditions of series [1]: oral exposure, radiolabeled AOH, male NMRI mice; cited from earlier work.
The nature of series [2]: Pattern of oxidative metabolites in rat LMs by HR-MS. It is filed as in vitro ADME, Sprague–Dawley rat. The note with it: rat LMs incubated with AME. As for the experimental part:
The kinetics of the phase I metabolism of AOH and AME was investigated by incubating human, rat (both 1 mg protein/mL), and porcine LMs (2 mg protein/mL) with 1, 10, 20, 50, and 100 μM AOH or 1, 10, 20, and 50 μM AME based on the protocol by Al-Subeihi et al.[34] The incubation solution contained a final concentration of 3 mM NADPH and 1 mM ascorbic acid in 200 mM Tris–HCl (pH 7.4). After preincubation (37 °C, 1 min, mixing at 250–300 rpm), the toxin stock was added in a 1:100 dilution, resulting in a total DMSO content of 1% and the desired toxin concentration. DMSO was selected for this assay because it is the least inhibitory of the solvents studied by Busby et al. on CYP1A1,[35] the primary enzyme involved in the hydroxylation of AOH and AME.[26] The well-established solubility of the test compounds in DMSO and DMSO-containing aqueous buffers facilitated laboratory work and ensured consistency with existing literature, thereby improving the comparability of results across studies, including those of Pfeiffer and colleagues.[25] […]
Pooled high-resolution MS (HR-MS) samples were analyzed on a Vanquish UHPLC system (Thermo Fisher Scientific, Waltham, MA, USA) connected to a dual-pressure linear trap-quadrupole Orbitrap mass analyzer (Velos ETD, Thermo Fisher Scientific, Waltham, MA, USA). […]

Series [3] in a line: Phase I metabolism kinetics (parent toxin loss) in NADPH-fortified human liver microsomes, LC-MS/MS. It is filed as in vitro ADME. As to conditions: for microsomal CLint: human, pH 7.4, human LMs, read-out: CLint (intrinsic clearance). Here is the method: Pooled human LMs and pooled Sprague–Dawley rat hepatic microsomes, both originating from male donors, were purchased from Sigma-Aldrich (St. Louis, MO, USA) and Gibco, Thermo Fisher Scientific (Waltham, MA, USA), respectively. Porcine LMs were prepared according to an in-house-developed protocol based on the publication of Knights et al.[32] The liver of an approximately four-month-old female “Large White” (or “German Edelschwein”) pig was obtained from a local slaughterhouse. After slaughtering, the liver was placed on ice for about an hour, kept in ice-cold 50 mM tris(hydroxymethyl)aminomethane hydrochloride (Tris–HCl) (pH 7.4) for an additional hour while being transported, and processed immediately.
The kinetics of the phase I metabolism of AOH and AME was investigated by incubating human, rat (both 1 mg protein/mL), and porcine LMs (2 mg protein/mL) with 1, 10, 20, 50, and 100 μM AOH or 1, 10, 20, and 50 μM AME based on the protocol by Al-Subeihi et al.[34] The incubation solution contained a final concentration of 3 mM NADPH and 1 mM ascorbic acid in 200 mM Tris–HCl (pH 7.4). After preincubation (37 °C, 1 min, mixing at 250–300 rpm), the toxin stock was added in a 1:100 dilution, resulting in a total DMSO content of 1% and the desired toxin concentration. DMSO was selected for this assay because it is the least inhibitory of the solvents studied by Busby et al. on CYP1A1,[35] the primary enzyme involved in the hydroxylation of AOH and AME.[26] The well-established solubility of the test compounds in DMSO and DMSO-containing aqueous buffers facilitated laboratory work and ensured consistency with existing literature, thereby improving the comparability of results across studies, including those of Pfeiffer and colleagues.[25] In a preliminary investigation, incubation times of 5 and 10 min were chosen because they fall within the linear range of the transformation rate–time relationship, thereby ensuring initial rate conditions (Figure S1). When the selected incubation time (0–10 min) passed, one part of the sample was pipetted into two parts of ice-cold extraction solvent (acetonitrile–methanol, 1:1, v/v) for reaction termination. Subsequently, the samples were placed into the freezer (−20 °C) for at least an hour, centrifuged (15 min, 18,000g, 4 °C), and further diluted in methanol–water (3:7, v/v) prior to LC–MS measurements. In the solvent control, the toxin was substituted with DMSO in the incubation solution. Control incubations were performed without the cofactor NADPH or with heat-inactivated microsomes (98 °C, 10 min, mixing at 300 rpm).
The quantification of selected analytes using external calibration (MS parameters listed in Supporting Information Table S1) was conducted on a high-performance liquid chromatographic system (Dionex UltiMate 3000 UHPLC, Dionex Softron GmbH, Germering, Germany) coupled to a triple quadrupole mass spectrometer (TSQ Vantage, Thermo Fisher Scientific, Waltham, MA, USA), equipped with a heated electrospray ionization (ESI) interface. The applied analytical method is based on Puntscher et al.[28],[36] with slight modifications, which are specified below.
In brief, the Ascentis Express C18 column (10 cm × 2.1 mm, 2.7 μm, Supelco, Munich, DE), equipped with the Phenomenex SecurityGuard (C18 Cartridges, 4 × 2.0 mm ID, Phenomenex Ltd. Deutschland, Aschaffenburg, Germany), served as the stationary phase. Eluent A was aqueous ammonium acetate (5 mM, pH adjusted to 8.6 with a 25% ammonia solution), and eluent B was methanol. During the first minute, the column was kept at 30% eluent B. Subsequently, the eluent B content was linearly raised to 100% within 6 min. Thereafter, the column was washed with 100% eluent B for 1.5 min. Lastly, the column was re-equilibrated at the initial conditions, reaching an overall run time of 10 min. The autosampler compartment was kept at 10 °C, while the column oven temperature was maintained at 30 °C. […]
For orientation: Liver microsomes are a subcellular fraction often used to study metabolism.

For series [4] the following is noted: Caco-2 cell monolayers; cited from earlier work.

By Km is commonly meant the concentration of substrate that gives half-maximal velocity.

With `Cc1cc(O)cc2oc(=O)c3c(O)cc(O)cc3c12` [AOH, alternariol], in series [1], the bioavailability entry is “less than 10%”. Moreover, in series [2], the “relative abundance among phase I metabolites (in words)” value was “one of the main metabolites”. The Concentration decrease stood at 28% in series [3] (human LMs, 1 µM toxin, 5 min); 53% in series [3] (human LMs, 1 µM toxin, 10 min); 11% in series [3] (human LMs, 10 µM toxin, 5 min); 17% in series [3] (human LMs, 10 µM toxin, 10 min); 10% in series [3] (human LMs, 20 µM toxin, 5 min); 20% in series [3] (human LMs, 20 µM toxin, 10 min). Also, the Concentration decrease in series [3] (human LMs, 50 µM toxin, 5 min) is given as 12%; in series [3] (human LMs, 50 µM toxin, 10 min), 22%; in series [3] (human LMs, 100 µM toxin, 5 min), 20%; in series [3] (human LMs, 100 µM toxin, 10 min) it was 39%. Moreover, the “Vmax (maximum transformation rate)” value in series [3] (human LMs, within 10 min, Michaelis–Menten model) came out at 3370 pmol/mg/min. For the same molecule, the microsomal CLint in series [3] (male, liver microsomes, Michaelis–Menten model, ratio Vmax/Km) was 25.8 µL/min/mg; in series [3] (male, liver microsomes, linear regression, lower concentration range), 19.9 µL/min/mg. In addition, in series [3] (male, liver microsomes, pH 7.4, human LMs 1 mg protein/mL, NADPH, within 10 min, Michaelis–Menten model, read-out: Km (Michaelis constant)), the Km amounted to 131 µM. Moreover, in series [4], the intestinal absorption entry was “limited intestinal absorption”.
